Laboratory results: patent US20230114083A1, “PHOTOACOUSTIC IMAGING AGENT” (National University Corporation Hokkaido University, priority 2021, published 2023)
Where a name gives a salt, the structure may show the parent alone. Read-outs that look alike come from different tables or passages of the source.

Experiment: Measurement of optical absorption spectrum and its pH dependence (ultraviolet visible spectrophotometer)
Format: physicochemical
Details: for pH dependence of absorption properties: phosphate buffers of various pH, 30% by volume DMSO; for pH dependence of absorption properties / absorption maxima: 1 μM; for absorption maxima / shift of maximum absorption wavelength: in DMSO; for shift of maximum absorption wavelength: aryl piperazine cyanines
Protocol: In order to investigate the optical absorption properties of the synthesized ICG derivatives, absorption spectra were measured and their pH dependence was examined using an ultraviolet visible spectrophotometer at a concentration of 1 μM either in dimethyl sulfoxide (DMSO) or in phosphate buffers of various pH with DMSO as a cosolvent (30% by volume of DMSO and 70% by volume of phosphate buffer).
For each ICG derivative, an absorption spectrum consisted of relative absorbance was obtained by setting the absorbance of the absorption peak near 700 nm in DMSO (absorbance at the maximum absorption wavelength) to 1.
The optical absorption spectra of the IGC derivative PBA-Cy was measured at various pH values in the same manner as in Example 1.
The optical absorption properties of the synthesized ICG derivatives (PPA-Cy and SS-PPA-Cy) were investigated in the same manner as in Example 1, and their pH dependence was examined.

[1] = phosphate buffers of various pH with DMSO as cosolvent, from pH dependence of absorption spectra, read-out: pKa

Molecule | pH dependence of absorption properties | absorption maxima | other results
2-[2-[2-[4-(2-carboxyethyl)piperazinyl]-3-[2-[1,3-dihydro-3,3-dimethyl-1-(3-sulfopropyl)-7-sulfo-2H-benz[e]indol-2-ylidene]ethylidene]cyclohexen-1-yl]ethenyl]-3,3-dimethyl-1-(3-sulfopropyl)-7-sulfo-3H-benz[e]indolium, Inner Salt, Sodium Salt [SS-PPA-Cy] | the maximum absorption wavelength shifted to the longer wavelength side as the pH became more acidic | – | pKa: 6.8
2-[2-[3-[2-[1,3-Dihydro-3,3-dimethyl-1-(3-sulfopropyl)-2H-benz[e]indol-2-ylidene]ethylidene]-2-(4-acetyl-1-piperazinyl)-1-cyclohexen-1-yl]ethenyl]-3,3-dimethyl-1-(3-sulfopropyl)-3H-benz[e]indolium, Inner Salt, Sodium Salt [AcP-Cy] | – | around 800 nm | –
2-[2-[3-[2-[1,3-dihydro-3,3-dimethyl-1-(3-sulfopropyl)-2H-benz[e]indol-2-ylidene]ethylidene]-2- [1-(4-nitrophenyl)-piperazinyl]-1-cyclohexen-1-yl]ethenyl]-3,3-dimethyl-1-(3-sulfopropyl)-3H-benz[e]indolium, Inner Salt, Sodium Salt [Nitro-PhP-Cy] | – | – | shift of maximum absorption wavelength: the maximum absorption wavelength was shifted to the longer wavelength side
2-[2-[3-[2-[1,3-dihydro-3,3-dimethyl-1-(3-sulfopropyl)-2H-benz[e]indol-2-ylidene]ethylidene]-2-(4-methyl-1-piperazinyl)-1-cyclohexen-1-yl]ethenyl]-3,3-dimethyl-1-(3-sulfopropyl)-3H-benz[e]indolium, Inner Salt, Sodium Salt [MP-Cy] | the maximum absorption wavelength shifted to the longer wavelength side as the pH became more acidic | ~700 nm | –
2-[2-[3-[2-[1,3-dihydro-3,3-dimethyl-1-(3-sulfopropyl)-2H-benz[e]indol-2-ylidene]ethylidene]-2-(4-methylsulfonyl-1-piperazinyl)-1-cyclohexen-1-yl]ethenyl]-3,3-dimethyl-1-(3-sulfopropyl)-3H-benz[e]indolium, Inner Salt, Sodium Salt [MSP-Cy] | – | around 800 nm | –
2-[2-[3-[2-[1,3-dihydro-3,3-dimethyl-1-(3-sulfopropyl)-2H-benz[e]indol-2-ylidene]ethylidene]-2-[1-(4-cyanophenyl)-piperazinyl]-1-cyclohexen-1-yl]ethenyl]-3,3-dimethyl-1-(3-sulfopropyl)-3H-benz[e]indolium, Inner Salt, Sodium Salt [Nitrille-PhP-Cy] | – | – | shift of maximum absorption wavelength: the maximum absorption wavelength was shifted to the longer wavelength side
CC1(C)C(=CC=C2CCCC(C=CC3=[N+](CCCS(=O)(=O)[O-])c4ccc5ccccc5c4C3(C)C)=C2N2CC[N+](C)(C)CC2)N(CCCS(=O)(=O)[O-])c2ccc3ccccc3c21 [DMP-Cy, 2-[2-[3-[2-[1,3-dihydro-3,3-dimethyl-1-(3-sulfopropyl)-2H-benz[e]indol-2-ylidene]ethylidene]-2-(4-dimethyl-1-piperaziniumyl)-1-cyclohexen-1-yl]ethenyl]-3,3-dimethyl-1-(3-sulfopropyl)-3H-benz[e]indolium, Inner Salt, Sodium Salt] | – | around 800 nm | –
CC1(C)C(/C=C/C2=C(N3CCOCC3)C(=C/C=C3/N(CCCS(=O)(=O)[O-])c4ccc5ccccc5c4C3(C)C)/CCC2)=[N+](CCCS(=O)(=O)[O-])c2ccc3ccccc3c21.[Na+] [Mor-Cy, 2-[2-[3-[2-[1,3-dihydro-3,3-dimethyl-1-(3-sulfopropyl)-2H-benz[e]indol-2-ylidene]ethylidene]-2-(4-morpholinyl)-1-cyclohexen-1-yl]ethenyl]-3,3-dimethyl-1-(3-sulfopropyl)-3H-benz[e]indolium, Inner Salt, Sodium Salt] | no change in absorption properties due to the pH | ~700 nm | –
CC1(C)C(/C=C/C2=C(N3CCN(Cc4ccc(CC(=O)O)cc4)CC3)C(=C/C=C3/N(CCCS(=O)(=O)[O-])c4ccc5ccccc5c4C3(C)C)/CCC2)=[N+](CCCS(=O)(=O)[O-])c2ccc3ccccc3c21.[Na+] [PBA-Cy, 2-[2-[3-[2-[1,3-dihydro-3,3-dimethyl-1-(3-sulfopropyl)-2H-benz[e]indol-2-ylidene]ethylidene]-2-[1-(4-carboxymethylbenzyl)-piperazinyl]-1-cyclohexen-1-yl]ethenyl]-3,3-dimethyl-1-(3-sulfopropyl)-3H-benz[e]indolium, Inner Salt, Sodium Salt] | shifted to the longer wavelength side as the pH became more acidic | – | pKa [1]: 4.9; molar absorption coefficient (used to calculate PBA-Cy concentration in conjugate solution): 32,000 M^−1 cm^−1
CC1(C)C(/C=C/C2=C(N3CCN(CCC(=O)[O-])CC3)C(=C/C=C3/N(CCCS(=O)(=O)[O-])c4ccc5ccccc5c4C3(C)C)/CCC2)=[N+](CCCS(=O)(=O)[O-])c2ccc3ccccc3c21.[Na+].[Na+] [PPA-Cy, 2-[2-[2-[4-(2-carboxyethyl)piperazinyl]-3-[2-[1,3-dihydro-3,3-dimethyl-1-(3-sulfopropyl)-2H-benz[e]indol-2-ylidene]ethylidene]-1-cyclohexenyl]ethenyl]-3,3-dimethyl-1-(3-sulfopropyl)-3H-benz[e]indolium, Inner Salt, Sodium Salt] | the maximum absorption wavelength shifted to the longer wavelength side as the pH became more acidic | – | pKa [1]: 5.7
CC1(C)C(=CC=C2CCCC(C=CC3=[N+](CCCS(=O)(=O)[O-])c4ccc5ccccc5c4C3(C)C)=C2N2CCCCC2)N(CCCS(=O)(=O)[O-])c2ccc3ccccc3c21.[Na+] [Piperi-Cy, 2-[2-[3-[2-[1,3-dihydro-3,3-dimethyl-1-(3-sulfopropyl)-2H-benz[e]indol-2-ylidene]ethylidene]-2-(1-piperidinyl)-1-cyclohexen-1-yl]ethenyl]-3,3-dimethyl-1-(3-sulfopropyl)-3H-benz[e]indolium, Inner Salt, Sodium Salt] | – | ~700 nm | –
